# Assay results as given in patent publication US20050245563A1 (Millennium Pharmaceuticals, Inc., priority 2003, published 2005).
# Target: T1, human Chk1 (GST-Chk1) (Homo sapiens, UniProt O14757)
# T1 construct: made in house; host or cells: insect cells (baculovirus, Bac-to-Bac)
# T1 sequence (O14757 1-476): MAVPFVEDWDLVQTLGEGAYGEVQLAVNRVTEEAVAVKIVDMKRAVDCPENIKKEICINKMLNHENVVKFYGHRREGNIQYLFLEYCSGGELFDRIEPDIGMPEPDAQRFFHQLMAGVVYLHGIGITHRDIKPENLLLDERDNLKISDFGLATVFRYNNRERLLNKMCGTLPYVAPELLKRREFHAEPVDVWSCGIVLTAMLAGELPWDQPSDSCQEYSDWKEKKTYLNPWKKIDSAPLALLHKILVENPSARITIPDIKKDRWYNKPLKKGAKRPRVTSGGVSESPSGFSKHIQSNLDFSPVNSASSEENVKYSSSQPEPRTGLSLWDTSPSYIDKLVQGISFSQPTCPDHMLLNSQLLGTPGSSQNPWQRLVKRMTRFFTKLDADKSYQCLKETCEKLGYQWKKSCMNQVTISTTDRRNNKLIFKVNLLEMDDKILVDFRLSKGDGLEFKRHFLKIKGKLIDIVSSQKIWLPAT
# Assay: Chk1 DELFIA kinase assay (2 nM GST-Chk1, 600 μM ATP)
# Assay type: biochemical
# Details: Biotin-GLYRSPSMPEN-amide substrate
# Method: Recombinant human Chk1 was expressed as a fusion protein with glutathione S-transferase at the amino-terminus (GST-Chk1) using standard baculovirus vectors and (Bac-to-Bac®) insect cell expression system purchased from GIBCO™ Invitrogen. Recombinant protein expressed in insect cells was purified using glutathione sepharose (Amersham Biotech) using standard procedures described by the manufacturer.
# Chk1 DELFIA® Kinase Assay:
# Assays (25 μL) utilized 2 nM GST-Chk1 containing 10 mM Tris, pH 7.5, 20% glycerol, 50 mM sodium chloride (NaCl), 0.01% Surfact-Amps® 20, 1 μM peptide stubstrate (Biotin-GLYRSPSMPEN-amide) (SEQ ID NO: 3), 01.% BSA, 2 mM DTT, 4% DMSO, 600 μM ATP, 10 MM MgCl2 and reacted for 50 minutes at room temperature. Reactions were terminated with 100 μL of Stop buffer containing 1% BSA, 10 mM Tris, pH 8.0, 150 mM NaCl, 100 mM EDTA. Stopped reactions (100 μL) were transferred to 96 well NeutrAvidin plates (Pierce) to capture the biotin-peptide substrate during a 30 minute room temperature incubation. Wells were washed and reacted with 100 μL PerkinElmer Wallac Assay Buffer containing 21.5 ng/ml anti-phospho-Ser216-Cdc25c rabbit polyclonal antibody from Cell Signaling Technology (Beverly, Mass.) and 292 ng/ml europium labeled anti-rabbit-IgG for 1 hour at room temperature. Wells were washed and europium released from the bound antibody by addition of Enhancement Solution (100 μL) (PerkinElmer Wallac) and detected using a Perkin Elmer Wallac Envison™ 2100 multilabel reader using standard manufacturer settings.
row,Compound,IC50 [nM]
1,"Cc1[nH]nc2c1c(=O)n(C[C@H](C)CN)c1ccc(F)cc21 (stereo in doubt) [Compound 202, 5-(3-Amino-2-methyl-propyl)-8-fluoro-3-methyl-2,5-dihydro-pyrazolo[4,3-c]quinolin-4-one]",< 1000
2,"COCCc1[nH]nc2c1c(=O)n(CCCN)c1ccc(F)cc21 [Compound 205, 5-(3-Amino-propyl)-8-fluoro-3-(2-methoxy-ethyl)-2,5-dihydro-pyrazolo[4,3-c]quinolin-4-one]",< 1000
3,"COCCc1[nH]nc2c1c(=O)n(CCCN)c1ccc(Cl)cc21 [Compound 206, 5-(3-Amino-propyl)-8-chloro-3-(2-methoxyethyl)-2,5-dihydro-pyrazolo[4,3-c]quinolin-4-one]",< 1000
4,"Cc1[nH]nc2c1c(=O)n(CC[C@H]1CCCCN1)c1ccc(Cl)cc21 [Compound 213, 8-Chloro-3-methyl-5-(2R-piperidin-2-yl-ethyl)-2,5-dihydro-pyrazolo[4,3-c]quinolin-4-one]",< 1000
5,"Cc1[nH]nc2c1c(=O)n(CCC(O)Cn1ccnc1)c1ccc(Cl)cc21 (stereo not shown) [Compound 252, 8-Chloro-5-(3-hydroxy-4-imidazol-1-yl-butyl)-3-methyl-2,5-dihydro-pyrazolo[4,3-c]quinolin-4-one]",< 1000
6,"COC(=O)/C=C/c1ccc2c(c1)c1n[nH]c(C)c1c(=O)n2CCCN [Compound 267, 3-[5-(3-Amino-propyl)-3-methyl-4-oxo-4,5-dihydro-2H-pyrazolo[4,3-c]quinolin-8-yl]-acrylic acid methyl ester]",< 1000
7,"COC(C)Cc1[nH]nc2c1c(=O)n(CCCN)c1ccc(Cl)cc21 (stereo not shown) [Compound 324, 5-(3-Amino-propyl)-8-chloro-3-(2-methoxy-propyl)-2,5-dihydro-pyrazolo[4,3-c]quinolin-4-one]",1000 to 10000
8,"COC(=O)c1ccc2c3n[nH]c(C)c3c(=O)n(CCCN)c2c1 [Compound 334, 5-(3-Amino-propyl)-3-methyl-4-oxo-4,5-dihydro-2H-pyrazolo[4,3-c]quinoline-7-carboxylic acid methyl ester]",1000 to 10000
9,"Cc1[nH]nc2c1c(=O)n(C)c1c(CCCN)cc(Cl)cc21 [Compound 343, 6-(3-Amino-propyl)-8-chloro-3,5-dimethyl-2,5-dihydro-pyrazolo[4,3-c]quinolin-4-one]",1000 to 10000
10,"Cc1[nH]nc2c1c(=O)n(C)c1c(C#CCO)cc(Cl)cc21 [Compound 344, 8-Chloro-6-(3-hydroxy-prop-1-ynyl)-3,5-dimethyl-2,5-dihydro-pyrazolo[4,3-c]quinolin-4-one]",1000 to 10000
11,"Cc1[nH]nc2c1c(=O)n(C)c1c(C#CCCN)cc(Cl)cc21 [Compound 345, 6-(4-amino-but-1-ynyl)-8-chloro-3,5-dimethyl-2,5-dihydro-pyrazolo[4,3-c]quinolin-4-one]",< 1000
12,"Cc1[nH]nc2c1c(=O)n(CCCN)c1c([N+](=O)[O-])cc(Cl)cc21 [Compound 347, 5-(3-Amino-propyl)-8-chloro-3-methyl-6-nitro-2,5-dihydro-pyrazolo[4,3-c]quinolin-4-one]",1000 to 10000
13,"Cc1[nH]nc2c1c(=O)n(CCCN)c1c(N)cc(Cl)cc21 [Compound 348, 6-Amino-5-(3-amino-propyl)-8-chloro-3-methyl-2,5-dihydro-pyrazolo[4,3-c]quinolin4-one]",< 1000
14,"Cc1[nH]nc2c1c(=O)n(CCCN)c1c(Br)cc(Cl)cc21 [Compound 349, 5-(3-Amino-propyl)-6-bromo-8-chloro-3-methyl 2,5-dihydro-pyrazolo[4,3-c]quinolin-4-one]",< 1000
15,"Cc1[nH]nc2c1c(=O)n(CCCN)c1ccc(-c3ccncc3)cc21 [Compound 358, 5-(3-Amino-propyl)-3-methyl-8-pyridin-4-yl-2,5-dihydro-pyrazolo[4,3-c]quinolin-4-one]",< 1000
16,"C#Cc1ccc2c(c1)c1n[nH]c(CC)c1c(=O)n2CCCN [Compound 360, 5-(3-Amino-propyl)-3-ethyl-8-ethynyl-2,5-dihydro-pyrazolo[4,3-c]quinolin-4-one]",< 1000
17,COCCc1[nH]nc2c1c(=O)n(CCC(C)N)c1ccc(Cl)cc21 (stereo not shown) [Example 219],< 1000
18,"COCCc1[nH]nc2c1c(=O)n(C[C@@H](C)CN)c1ccc(Cl)cc21 [Example 222, 5-(3-Amino-2S-methyl-propyl)-8-chloro-3-(2-methoxy-ethyl)-2,5-dihydro-pyrazolo[4,3-c]quinolin-4-one]",< 1000
19,"COCCc1[nH]nc2c1c(=O)n(C[C@H](C)CN)c1ccc(Cl)cc21 [Example 223, 5-(3-Amino-2R-methyl-propyl)-8-chloro-3-(2-methoxy-ethyl)-2,5-dihydro-pyrazolo[4,3-c]quinolin-4-one]",< 1000
20,"Cc1[nH]nc2c1c(=O)n(C[C@@H]1CCCNC1)c1ccc(Cl)cc21 [Example 224, 8-Chloro-3-methyl-5R-piperidin-3-ylmethyl-2,5-dihydro-pyrazolo[4,3-c]quinolin-4-one]",< 1000

# Further lines, results first:
row,IC50 [nM],Compound
1,< 1000,"Cc1[nH]nc2c1c(=O)n(CCCN)c1ccc(F)cc21 [Compound 203, 5-(3-Amino-propyl)-8-fluoro-3-methyl-2,5-dihydro-pyrazolo[4,3-c]quinolin-4-one]"
2,< 1000,"Cc1[nH]nc2c1c(=O)n(CCCN)c1ccc(I)cc21 [Compound 208, 5-(3-Amino-propyl)-8-iodo-3-methyl-2,5-dihydro-pyrazolo[4,3-c]quinolin-4-one]"
3,< 1000,"Cc1[nH]nc2c1c(=O)n(CCCO)c1ccc(Cl)cc21 [Compound 209, 8-Chloro-5-(3-hydroxy-propyl)-3-methyl-2,5-dihydro-pyrazolo[4,3-c]quinolin-4-one]"
4,< 1000,"Cc1[nH]nc2c1c(=O)n(CCC(C)N)c1ccc(Cl)cc21 (stereo not shown) [Compound 216, 5-(3-Amino-butyl)-8-chloro 3-methyl-2,5-dihydro-pyrazolo[4,3-c]quinolin-4-one]"
5,< 1000,"Cc1[nH]nc2c1c(=O)n(CCCNC(=N)N)c1ccc(Cl)cc21 [Compound 253, N-[3-(8-Chloro-3-methyl-4-oxo-2,4-dihydro-pyrazolo[4,3-c]quinolin-5-yl)-propyl]-guanidine]"
6,1000 to 10000,"Cc1[nH]nc2c1c(=O)n(CCCN)c1ccc(C(=O)O)cc21 [Compound 266, 5-(3-Amino-propyl)-3-methyl-4-oxo-4,5-dihydro-2H-pyrazolo[4,3-c]quinoline-8-carboxylic acid]"
7,< 1000,"COC(=O)CCc1ccc2c(c1)c1n[nH]c(C)c1c(=O)n2CCCN [Compound 268, 3-[5-(3-Amino-propyl)-3-methyl-4-oxo-4,5-dihydro-2H-pyrazolo[4,3-c]quinolin-8-yl]-propionic acid methyl ester]"
8,1000 to 10000,"Cc1[nH]nc2c1c(=O)n(CCCN)c1ccc(CCC(=O)O)cc21 [Compound 269, 3-[5-(3-Aminopropyl)-3-methyl-4-oxo-4,5-dihydro-2H-pyrazolo[4,3-c]quinolin-8-yl]-propionic acid]"
9,< 1000,"NCCCn1c(=O)c2c(CCO)[nH]nc2c2cc(Cl)ccc21 [Compound 316, 5-(3-Amino-propyl)-8-chloro-3-(2-hydroxy-ethyl)-2,5-dihydro-pyrazolo[4,3-c]quinolin-4-one]"
10,< 1000,"CC(C)c1[nH]nc2c1c(=O)n(CCCN)c1ccc(Cl)cc21 [Compound 325, 5-(3-Amino-propyl)-8-chloro-3-isopropyl-2,5-dihydro-pyrazolo[4,3-c]quinolin-4-one]"
11,< 1000,"Cc1[nH]nc2c1c(=O)n(CCCN)c1ccc(NC(=O)CCN)cc21 [Compound 357, 3-Amino-N-[5-(3-amino-propyl)-3-methyl-4-oxo-4,5-dihydro-2H-pyrazolo[4,3-c]quinolin-8-yl]-propionamide]"
12,< 1000,"Cc1[nH]nc2c1c(=O)n(CC[C@@H](C)N)c1ccc(Cl)cc21 [Example 217, 5-(3R-Amino-butyl)-8-chloro 3-methyl-2,5-dihydro-pyrazolo[4,3-c]quinolin-4-one]"
13,< 1000,"Cc1[nH]nc2c1c(=O)n(C[C@@H](C)CN)c1ccc(Cl)cc21 [Example 220, 5-(3-Amino-2S-methyl-propyl)-8-chloro-3-methyl-2,5-dihydro-pyrazolo[4,3-c]quinolin-4-one]"
14,< 1000,"Cc1[nH]nc2c1c(=O)n(C[C@H](C)CN)c1ccc(Cl)cc21 [Example 221, 5-(3-Amino-2R-methyl-propyl)-8-chloro-3-methyl-2,5-dihydro-pyrazolo[4,3-c]quinolin-4-one]"
